According to BindingDB's records for doi:10.1016/S0960-894X(00)80255-3 (1991):

What follows are molecules tested against Tyrosine-protein kinase Lck (Homo sapiens, UniProt P06239) (assay: ChEBML_210745).
Excerpt: Inhibitory concentration against phosphorylation of angiotensin I catalyzed by protein-tyrosine kinase p56lck

Chain of Tyrosine-protein kinase Lck (P06239 whole entry): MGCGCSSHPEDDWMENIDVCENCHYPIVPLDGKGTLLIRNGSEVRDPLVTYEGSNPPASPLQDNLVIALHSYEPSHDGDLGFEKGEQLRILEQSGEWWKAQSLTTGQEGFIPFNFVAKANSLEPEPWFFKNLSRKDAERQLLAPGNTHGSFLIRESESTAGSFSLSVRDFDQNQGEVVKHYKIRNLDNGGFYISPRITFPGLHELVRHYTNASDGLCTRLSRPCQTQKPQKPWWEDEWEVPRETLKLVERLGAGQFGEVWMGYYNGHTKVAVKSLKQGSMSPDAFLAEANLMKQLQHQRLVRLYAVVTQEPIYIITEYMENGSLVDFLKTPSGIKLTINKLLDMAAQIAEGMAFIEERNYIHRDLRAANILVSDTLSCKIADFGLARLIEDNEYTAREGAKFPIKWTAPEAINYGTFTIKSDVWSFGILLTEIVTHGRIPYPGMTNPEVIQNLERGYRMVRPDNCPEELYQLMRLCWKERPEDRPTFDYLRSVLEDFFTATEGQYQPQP

Question: With `Brc1ccc(N=NCc2ccccn2)cc1` [N-(4-Bromo-phenyl)-N'-[1-pyridin-2-yl-meth-(E)-ylidene]-hydrazine] as the molecule, how does the IC50 read?
Answer: > 2900 µM

Question: How did the IC50 turn out when `c1ccc(N=NCc2ccncc2)cc1` [N-Phenyl-N'-[1-pyridin-4-yl-meth-(E)-ylidene]-hydrazine] was run?
Answer: > 4060 µM

Question: `O=[N+]([O-])c1ccc(C/N=N/c2ccccc2)cc1` was tested. Which IC50 did it give?
Answer: > 3320 µM

Question: With `Brc1ccc(N=NCc2cccnc2)cc1` [N-(4-Bromo-phenyl)-N'-[1-pyridin-3-yl-meth-(E)-ylidene]-hydrazine] as the molecule, how does the IC50 read?
Answer: > 2900 µM

Question: Which IC50 does the source give for `COc1ccc(N=NCc2cc(O)ccc2O)cc1` [2-[(4-Methoxy-phenyl)-hydrazonomethyl]-benzene-1,4-diol] here?
Answer: 310 µM

Question: With `Brc1ccc(N=NCc2ccncc2)cc1` [N-(4-Bromo-phenyl)-N'-[1-pyridin-4-yl-meth-(E)-ylidene]-hydrazine] as the molecule, how does the IC50 read?
Answer: > 2900 µM

Question: For `Oc1ccc(Br)cc1CN=Nc1ccccc1` [4-Bromo-2-(phenyl-hydrazonomethyl)-phenol], which IC50 is on record?
Answer: > 2600 µM

Question: `O=[N+]([O-])c1cccc(C/N=N/c2ccccc2)c1` [N-[1-(3-Nitro-phenyl)-meth-(E)-ylidene]-N'-phenyl-hydrazine] was tested. Which IC50 did it give?
Answer: > 3320 µM

Question: How did the IC50 turn out when `COc1ccc(N=NCc2cccc(O)c2O)cc1` [3-[(4-Methoxy-phenyl)-hydrazonomethyl]-benzene-1,2-diol] was run?
Answer: 310 µM

Question: For `c1ccc(N=NCc2ccccn2)cc1` [N-Phenyl-N'-[1-pyridin-2-yl-meth-(E)-ylidene]-hydrazine], which IC50 is on record?
Answer: > 4060 µM

Question: How did the IC50 turn out when `O=[N+]([O-])c1ccc(/N=N\Cc2cccc(O)c2O)c([N+](=O)[O-])c1` [3-[(2,4-Dinitro-phenyl)-hydrazonomethyl]-benzene-1,2-diol] was run?
Answer: > 2510 µM

Question: With `COc1ccc(CN=Nc2ccc(Br)cc2)cc1O` [5-[(4-Bromo-phenyl)-hydrazonomethyl]-2-methoxy-phenol] as the molecule, how does the IC50 read?
Answer: > 2490 µM
